Target: T1, Bcl-XL (Homo sapiens, UniProt Q07817)
T1 construct: gene BCL2L1; mCerulean3-Bcl-XL fusion expressed in MCF-7 cells
Assay: live-cell FLIM-FRET displacement of Venus-Bad from mCer3-Bcl-XL in MCF-7 cells
Assay type: cell-based

T1 sequence (Q07817 whole entry, the tested form may be a part): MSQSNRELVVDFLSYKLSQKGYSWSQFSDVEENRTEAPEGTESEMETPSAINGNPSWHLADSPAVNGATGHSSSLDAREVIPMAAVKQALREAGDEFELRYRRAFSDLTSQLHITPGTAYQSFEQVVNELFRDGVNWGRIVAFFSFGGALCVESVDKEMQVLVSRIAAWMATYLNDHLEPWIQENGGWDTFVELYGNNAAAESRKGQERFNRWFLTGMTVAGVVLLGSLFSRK

Which IC50 does the source give for `CN(C)CC#Cc1ccc(OCCCc2sc(N3CCc4cccc(C(=O)Nc5nc6ccccc6s5)c4C3)nc2C(=O)O)c(F)c1` [A-1155463] here?
Its IC50 is < 1250 nM.

— article PMC6414199, “Bim escapes displacement by BH3-mimetic anti-cancer drugs by double-bolt locking both Bcl-XL and Bcl-2” (eLife, 2019)
